Source: PubChem BioAssay (NCI)
Several values for one entry are separate records, joined by “and”; a condition that tells them apart may be missing. Identical values can stand only once.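 Step 1: Grow cells in 96-well plates. Step 2: Expose to compound for 48 hours at 5 concentrations. Step 3: Interpolate endpoints linearly; if unreached, use highest concentration. Abbreviation: GI50, concentration required for 50% inhibition of growth. TGI: total growth inhibition.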

Tests used:
Assay in all cases: NCI anticancer screen, dose series, 48 h
A498 renal = system: A498 renal
COLO 205 colon = system: COLO 205 colon
SK-OV-3 ovarian = system: SK-OV-3 ovarian
LOX IMVI melanoma = system: LOX IMVI melanoma
IGROV1 ovarian = system: IGROV1 ovarian
NCI-H522 lung = system: NCI-H522 lung
KM12 colon = system: KM12 colon
CAKI-1 renal = system: CAKI-1 renal
UACC-257 melanoma = system: UACC-257 melanoma
OVCAR-4 ovarian = system: OVCAR-4 ovarian

SMILES	GI50 (A498 renal)	TGI (A498 renal)	GI50 (COLO 205 colon)	TGI (COLO 205 colon)	GI50 (SK-OV-3 ovarian)	TGI (SK-OV-3 ovarian)	GI50 (LOX IMVI melanoma)	GI50 (IGROV1 ovarian)	TGI (IGROV1 ovarian)	GI50 (NCI-H522 lung)	GI50 (KM12 colon)	TGI (KM12 colon)	GI50 (CAKI-1 renal)	TGI (CAKI-1 renal)	GI50 (UACC-257 melanoma)	TGI (UACC-257 melanoma)	TGI (LOX IMVI melanoma)	TGI (NCI-H522 lung)	TGI (OVCAR-4 ovarian)	GI50 (OVCAR-4 ovarian)
NC(=S)N/N=C/c1ccc(O)cn1	12.4 µM and 36 µM	131 µM and 292 µM	35.8 µM and 55 µM and 8.96 µM	> 1500 µM and 655 µM	128 µM and 25.8 µM	953 µM and 613 µM	12.4 µM	50.9 µM and 27.1 µM	916 µM and 827 µM	10.2 µM and 1.41 µM and 7 µM	35 µM	> 1500 µM	32.1 µM and 21.8 µM and 8.53 µM	178 µM and 339 µM	25.6 µM and 34 µM	74.2 µM and 112 µM and 149 µM				
CC(=O)OCc1ccc(O)c(C=O)c1				> 100 µM		> 100 µM			> 100 µM			> 100 µM		> 100 µM		> 100 µM	> 100 µM	> 100 µM	> 100 µM	
COC(=O)[C@@]1(O)CC(C)C=C1C=O (stereo not given in full)		> 100 µM		> 100 µM		> 100 µM			> 100 µM			> 100 µM		> 100 µM		> 100 µM	> 100 µM	94.9 µM	> 100 µM	
COc1ccc2c3c(c4ccccc4cc13)C(=O)N(CCN(C)CCN)C2=O	0.393 µM	1.73 µM	0.0843 µM	1.27 µM	0.0692 µM	0.806 µM	0.0446 µM			0.0742 µM	0.171 µM	1.28 µM	0.0541 µM	2.82 µM	0.483 µM	17.4 µM	0.381 µM	1.23 µM	1.7 µM	0.299 µM
O=C(NCCN1CCC(O)CC1)c1cc2c(o1)C(=O)c1ccccc1C2=O	0.17 µM	0.34 µM	0.078 µM	0.228 µM	1.51 µM	2.92 µM	0.145 µM	0.3 µM	1.02 µM	0.284 µM	0.481 µM	1.87 µM	1.28 µM	2.66 µM	0.176 µM	0.391 µM	0.337 µM	1.09 µM	0.436 µM	0.182 µM
CC1(C)CCC[C@]2(C)c3cc(O)ccc3CC[C@@H]12	16.2 µM	29.7 µM	20.4 µM	46 µM			16.9 µM	20.4 µM	38.8 µM	21.5 µM	14.1 µM	31.2 µM	19.5 µM	35.9 µM	19.6 µM	36 µM	33.7 µM	47.4 µM	33.6 µM	16.6 µM
N#C/C(=C\Nc1ccccn1)C(=O)c1ccco1		> 100 µM		> 100 µM		> 100 µM			> 100 µM			> 100 µM		> 100 µM		> 100 µM	> 100 µM	> 100 µM	> 100 µM	
Fc1cccc(CSc2ncnc3c2ncn3C2CCCS2)c1 (stereo not given)		41.8 µM		24.4 µM		> 100 µM			> 100 µM			38.9 µM		> 100 µM		29.6 µM	34.9 µM	44 µM	83.1 µM	
Nc1nc2ccc3[nH]ncc3c2c2c1CCCC2	1.64 µM	3.49 µM	2.09 µM	10.1 µM	2.94 µM	14.7 µM	1.29 µM	2.29 µM	11.2 µM	2.17 µM	2.82 µM	11.6 µM	0.609 µM	8.24 µM	3.28 µM	11.6 µM	2.82 µM	5.88 µM	7.92 µM	3.6 µM
Oc1ccc2ccccc2c1C1NN=C(c2ccccc2)S1 (stereo not given)	1.34 µM	14.1 µM	0.55 µM	16.3 µM	0.519 µM	20.5 µM	0.327 µM	0.485 µM	30.3 µM	0.307 µM	0.409 µM	32.9 µM	0.339 µM	17.8 µM	0.561 µM	12 µM	13 µM	13.5 µM	> 71.3 µM	0.515 µM
C[C@]1(C(=O)O)N[C@H](C(=O)O)CS1			> 1000 µM	> 1000 µM	> 1000 µM	> 1000 µM	> 1000 µM	> 1000 µM	> 1000 µM	> 1000 µM	> 1000 µM	> 1000 µM	843 µM	> 1000 µM	> 1000 µM	> 1000 µM	> 1000 µM	> 1000 µM	> 1000 µM	> 1000 µM
COc1cc(C=O)c(-c2cc3c(cc2C2(C)OCCS2)OCO3)c(OC)c1OC (stereo not given)		23.9 µM		16.1 µM		> 239 µM			> 169 µM			34 µM		71.4 µM		43.4 µM	37.7 µM	13 µM	173 µM	
COc1ccc2c(c1)CCc1[nH]nc(-c3cc(OC)c(OC)c(OC)c3)c1-2	< 0.01 µM	< 0.01 µM	< 0.01 µM	< 0.01 µM	< 0.01 µM	< 0.01 µM	< 0.01 µM	< 0.01 µM	23.7 µM	< 0.01 µM	< 0.01 µM	11.8 µM	< 0.01 µM	24.8 µM			11.8 µM	< 0.01 µM	56.5 µM	< 0.01 µM
COc1cc(-c2csc(NC(=O)Nc3cc(C(F)(F)F)cc(C(F)(F)F)c3)n2)cc(OC)c1OC	1.11 µM	5.08 µM	1.8 µM	3.45 µM	2.59 µM	8.57 µM	3.04 µM	4.25 µM	18.1 µM	1.6 µM	2.49 µM	11.8 µM	2.88 µM	12.1 µM			12.3 µM	5 µM	17 µM	2.68 µM
CC(=O)OC1CC[C@@]2(C)C(CC[C@]3(C)C2CC=C2[C@@H]4CC(C)(C)CCC4(C)CCC23C)[C@@]1(C)C(=O)O (stereo not given in full)		39.3 µM		48.5 µM		31.2 µM			38.6 µM			52.3 µM		38.5 µM		43.3 µM	50.1 µM	22.6 µM	40.2 µM	
